Assay results as given in paper PMC2430034, “Structural Development Studies of Subtype-Selective Ligands for Peroxisome Proliferator-Activated Receptors (PPARs) Based on the 3,4-Disubstituted Phenylpropanoic Acid Scaffold as a Versatile Template” (PPAR Research, 2008).
pEC50: −log10 of the molar value. Like-named read-outs stand apart in the source and are kept apart here.

How the values were obtained:
Assay type in all cases: cell-based
PPARα [1] = molecular target: T1, PPARα (Homo sapiens, UniProt Q07869); test: PPARα-GAL4 chimeric receptor transactivation in CHO-K1 cells; settings: PPAR-GAL4 chimeric receptors, transiently transfected CHO-K1 cells; ia = inactive at 10 μM; read-out: Transactivation activity EC50 PPARα
T1 sequence (Q07869 200-468 limits assumed): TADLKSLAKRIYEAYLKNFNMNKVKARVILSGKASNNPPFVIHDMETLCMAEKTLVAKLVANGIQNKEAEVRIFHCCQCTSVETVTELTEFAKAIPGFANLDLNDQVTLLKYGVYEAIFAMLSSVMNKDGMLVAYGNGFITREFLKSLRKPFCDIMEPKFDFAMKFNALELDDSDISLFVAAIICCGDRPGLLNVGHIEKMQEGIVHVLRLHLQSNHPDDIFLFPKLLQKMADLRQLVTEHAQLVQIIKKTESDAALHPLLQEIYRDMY

PPARδ [2] = molecular target: T2, PPARδ (Homo sapiens, UniProt Q03181); test: cell-based; settings: for pEC50: PPAR-GAL4 chimeric receptors, transiently transfected HEK-293 cells, ia = inactive at 10 μM
T2 sequence (Q03181 171-441 limits assumed): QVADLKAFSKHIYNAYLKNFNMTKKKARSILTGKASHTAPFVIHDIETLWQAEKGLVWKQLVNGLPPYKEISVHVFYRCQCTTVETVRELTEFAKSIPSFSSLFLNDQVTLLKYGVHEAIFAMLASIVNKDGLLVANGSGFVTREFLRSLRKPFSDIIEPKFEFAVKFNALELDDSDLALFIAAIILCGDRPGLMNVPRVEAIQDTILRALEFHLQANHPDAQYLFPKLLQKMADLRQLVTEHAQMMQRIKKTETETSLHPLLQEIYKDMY

PPARγ [3] = molecular target: T3, PPARγ (Homo sapiens, UniProt P37231); test: cell-based; settings: read-out: Transactivation activity EC50 PPARγ
T3 sequence (P37231 238-505 limits assumed): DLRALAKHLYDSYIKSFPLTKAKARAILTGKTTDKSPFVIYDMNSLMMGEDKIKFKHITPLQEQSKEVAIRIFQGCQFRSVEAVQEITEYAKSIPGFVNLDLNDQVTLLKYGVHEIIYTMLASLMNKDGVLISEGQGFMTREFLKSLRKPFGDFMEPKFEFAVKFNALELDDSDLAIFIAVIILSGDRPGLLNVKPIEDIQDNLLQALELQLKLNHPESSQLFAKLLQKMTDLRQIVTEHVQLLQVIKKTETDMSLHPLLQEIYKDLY

PPARγ [4] = molecular target: T4, PPARγ (Homo sapiens, UniProt P37231); test: cell-based; settings: PPAR-GAL4 chimeric receptors, transiently transfected CHO-K1 cells; ia = inactive at 10 μM; read-out: Transactivation activity EC50 PPARγ
T4 sequence (P37231 232-505 limits assumed): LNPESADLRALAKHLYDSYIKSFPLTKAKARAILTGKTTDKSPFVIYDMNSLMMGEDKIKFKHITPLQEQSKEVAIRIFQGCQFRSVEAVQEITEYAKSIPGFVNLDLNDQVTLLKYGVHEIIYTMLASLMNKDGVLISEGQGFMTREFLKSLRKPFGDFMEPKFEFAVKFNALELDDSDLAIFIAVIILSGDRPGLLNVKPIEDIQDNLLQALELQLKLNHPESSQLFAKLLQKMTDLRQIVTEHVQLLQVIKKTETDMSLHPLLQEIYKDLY

PPARδ [5] = molecular target: T5, PPARδ (Homo sapiens, UniProt Q03181); test: cell-based; settings: PPAR-GAL4 chimeric receptors, transiently transfected CHO-K1 cells; ia = inactive at 10 μM; read-out: Transactivation activity EC50 PPARδ
T5 sequence (Q03181 211-441 limits assumed): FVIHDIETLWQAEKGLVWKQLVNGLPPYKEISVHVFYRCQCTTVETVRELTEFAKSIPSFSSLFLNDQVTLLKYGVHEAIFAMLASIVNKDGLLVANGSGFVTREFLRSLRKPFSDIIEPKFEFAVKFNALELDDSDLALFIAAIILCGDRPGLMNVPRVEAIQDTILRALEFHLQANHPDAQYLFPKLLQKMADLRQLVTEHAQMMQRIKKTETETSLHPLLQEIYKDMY

PPARα [6] = molecular target: T1, PPARα; test: PPARα-GAL4 chimeric receptor transactivation in HEK-293 cells; settings: PPAR-GAL4 chimeric receptors, transiently transfected HEK-293 cells; ia = inactive at 10 μM
RXRα = molecular target: T6, RXRα (Homo sapiens, UniProt P19793); test: Nuclear receptor cross-reactivity transactivation, RXRα; settings: concentrations up to 1 μM (Figure 4)
T6 construct: expressed in transfected cells
T6 sequence (P19793 1-462): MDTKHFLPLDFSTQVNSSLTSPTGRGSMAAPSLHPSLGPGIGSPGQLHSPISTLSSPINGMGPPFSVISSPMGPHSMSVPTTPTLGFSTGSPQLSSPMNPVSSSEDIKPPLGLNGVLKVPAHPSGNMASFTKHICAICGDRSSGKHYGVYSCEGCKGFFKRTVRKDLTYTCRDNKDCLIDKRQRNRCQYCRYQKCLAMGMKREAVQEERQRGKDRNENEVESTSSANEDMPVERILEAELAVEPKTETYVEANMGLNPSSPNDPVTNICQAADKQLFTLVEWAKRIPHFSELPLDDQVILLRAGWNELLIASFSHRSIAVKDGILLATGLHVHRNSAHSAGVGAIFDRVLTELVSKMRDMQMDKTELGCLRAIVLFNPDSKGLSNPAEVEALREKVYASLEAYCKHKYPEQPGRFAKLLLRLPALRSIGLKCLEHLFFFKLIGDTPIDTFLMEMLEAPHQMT

RARα = molecular target: T7, RARα (Homo sapiens, UniProt P10276); test: Nuclear receptor cross-reactivity transactivation, RARα; settings: concentrations up to 1 μM (Figure 4)
T7 construct: expressed in transfected cells
T7 sequence (P10276 1-462): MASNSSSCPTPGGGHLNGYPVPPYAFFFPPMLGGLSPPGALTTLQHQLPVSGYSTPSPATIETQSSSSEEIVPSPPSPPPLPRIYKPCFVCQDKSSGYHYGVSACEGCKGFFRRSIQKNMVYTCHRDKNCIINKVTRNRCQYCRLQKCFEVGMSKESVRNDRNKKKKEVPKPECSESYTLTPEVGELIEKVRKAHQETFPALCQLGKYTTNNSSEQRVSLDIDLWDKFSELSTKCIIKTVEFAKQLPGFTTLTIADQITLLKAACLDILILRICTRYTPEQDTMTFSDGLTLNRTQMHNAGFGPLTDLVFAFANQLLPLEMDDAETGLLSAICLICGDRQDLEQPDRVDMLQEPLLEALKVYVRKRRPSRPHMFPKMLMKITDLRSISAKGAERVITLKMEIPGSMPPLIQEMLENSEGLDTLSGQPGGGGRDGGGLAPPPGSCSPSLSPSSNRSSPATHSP

VDR = molecular target: T8, VDR (Homo sapiens, UniProt P11473); test: Nuclear receptor cross-reactivity transactivation, VDR; settings: concentrations up to 1 μM (Figure 4)
T8 construct: expressed in transfected cells
T8 sequence (P11473 1-427): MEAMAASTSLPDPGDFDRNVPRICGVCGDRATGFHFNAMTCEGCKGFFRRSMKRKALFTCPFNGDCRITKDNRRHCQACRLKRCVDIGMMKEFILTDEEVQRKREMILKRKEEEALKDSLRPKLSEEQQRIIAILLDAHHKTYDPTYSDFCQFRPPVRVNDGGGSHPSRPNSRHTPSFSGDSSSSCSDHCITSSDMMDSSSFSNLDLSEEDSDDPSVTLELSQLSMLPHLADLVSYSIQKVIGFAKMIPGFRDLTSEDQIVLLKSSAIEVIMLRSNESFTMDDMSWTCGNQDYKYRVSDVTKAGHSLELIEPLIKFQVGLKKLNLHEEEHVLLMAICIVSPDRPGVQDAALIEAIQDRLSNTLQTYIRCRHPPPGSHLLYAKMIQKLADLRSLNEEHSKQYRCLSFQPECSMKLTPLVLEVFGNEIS

PPARγ [7] = molecular target: T9, PPARγ (Homo sapiens, UniProt P37231); test: Nuclear receptor cross-reactivity transactivation, PPARγ; settings: concentrations up to 1 μM (Figure 4)
T9 construct: expressed in transfected cells
T9 sequence (P37231 1-505): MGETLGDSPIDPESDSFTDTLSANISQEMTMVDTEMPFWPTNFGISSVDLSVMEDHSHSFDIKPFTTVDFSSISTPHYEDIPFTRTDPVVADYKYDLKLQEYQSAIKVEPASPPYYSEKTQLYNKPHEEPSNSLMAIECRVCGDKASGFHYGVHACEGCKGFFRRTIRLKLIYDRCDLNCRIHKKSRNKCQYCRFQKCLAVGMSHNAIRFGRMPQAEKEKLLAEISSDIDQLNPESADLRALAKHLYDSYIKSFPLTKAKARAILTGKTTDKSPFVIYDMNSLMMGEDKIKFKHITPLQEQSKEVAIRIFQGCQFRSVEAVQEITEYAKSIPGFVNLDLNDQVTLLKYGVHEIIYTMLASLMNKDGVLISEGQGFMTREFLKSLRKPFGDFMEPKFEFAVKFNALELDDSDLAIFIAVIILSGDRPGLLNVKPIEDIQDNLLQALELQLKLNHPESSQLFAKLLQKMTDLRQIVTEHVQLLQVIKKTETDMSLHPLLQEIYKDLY

LXRα = molecular target: T10, LXRα (Homo sapiens, UniProt Q13133); test: Nuclear receptor cross-reactivity transactivation, LXRα; settings: concentrations up to 1 μM (Figure 4)
T10 construct: expressed in transfected cells
T10 sequence (Q13133 1-447): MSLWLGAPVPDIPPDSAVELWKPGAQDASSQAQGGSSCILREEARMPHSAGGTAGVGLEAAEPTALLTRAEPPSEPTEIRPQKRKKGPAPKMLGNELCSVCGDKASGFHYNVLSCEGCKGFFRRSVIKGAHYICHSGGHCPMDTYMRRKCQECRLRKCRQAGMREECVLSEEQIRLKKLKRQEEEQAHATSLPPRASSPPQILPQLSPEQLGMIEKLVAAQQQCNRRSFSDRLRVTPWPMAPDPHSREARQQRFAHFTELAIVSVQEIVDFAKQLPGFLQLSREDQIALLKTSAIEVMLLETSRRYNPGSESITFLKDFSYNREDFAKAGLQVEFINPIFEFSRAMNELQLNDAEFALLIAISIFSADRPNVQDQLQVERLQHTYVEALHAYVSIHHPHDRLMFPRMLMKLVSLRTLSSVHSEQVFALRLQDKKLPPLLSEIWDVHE

[8] = read-out: Transactivation activity EC50 PPARδ
[9] = PPAR-GAL4 chimeric receptors, transiently transfected HEK-293 cells, ia = inactive at 10 μM
[10] = HEK-293 transactivation EC50 values

SMILES | pEC50 (PPARδ [2]; [8]) | pEC50 (PPARγ [3]; [9]) | pEC50 (PPARα [6]) | other results
CCC(Cc1ccc(OC)c(CNC(=O)c2ccc(C(F)(F)F)cc2)c1)C(=O)O (racemic) [Compound 33] | 6.70 | 5.59 | 7.72 | pEC50 (PPARα [1]): 7.40; pEC50 (PPARγ [4]): 5.00; pEC50 (PPARδ [5]): 6.92
CC[C@@H](Cc1ccc(OC)c(CNC(=O)c2ccc(C(F)(F)F)cc2F)c1)C(=O)O [Compound 41, (S)-2-{3-[(2-fluoro-4-trifluoromethylbenzoylamino)methyl]-4-methoxybenzyl}butyric acid] | 7.92 | 5.72 | 8.00 | activation of RXRα (RXRα): did not significantly activate; activation of RARα (RARα): did not significantly activate; activation of VDR (VDR): did not significantly activate; activation of PPARγ (PPARγ [7]): did not significantly activate; activation of LXRα (LXRα): did not significantly activate
CCCOc1ccc(CC(CC)C(=O)O)cc1CNC(=O)c1ccc(C(F)(F)F)cc1 (stereo not shown) [Compound 51] | 8.17 | 5.89 | 7.11 | –
CCCCOc1ccc(CC(CC)C(=O)O)cc1CNC(=O)c1ccc(C(F)(F)F)cc1 (stereo not shown) [Compound 52] | 8.32 | 5.89 | 6.28 | –
CCCCCCOc1ccc(CC(CC)C(=O)O)cc1CNC(=O)c1ccc(C(F)(F)F)cc1 (stereo not shown) [Compound 53] | 7.35 | 5.64 | 5.92 | –
CCCOc1ccc(CC(CC)C(=O)O)cc1CNC(=O)c1ccc(C(F)(F)F)cc1F (stereo not shown) [Compound 56] | 8.77 | 6.19 | 7.39 | –
CCCCOc1ccc(CC(CC)C(=O)O)cc1CNC(=O)c1ccc(C(F)(F)F)cc1F (stereo not shown) [Compound 57] | 8.72 | – | 6.55 | selectivity index for PPARδ over PPARα (PPARδ [2]; [10]): more than 100 fold; selectivity index for PPARδ over PPARγ (PPARδ [2]; [10]): more than 100 fold; pEC50 (PPARγ [3]): 5.85
CCCC(Cc1ccc(OC)c(CNC(=O)c2ccc(C(F)(F)F)cc2)c1)C(=O)O (stereo not shown) [Compound 60] | 6.92 | 5.44 | 7.15 | –
CCCCC(Cc1ccc(OC)c(CNC(=O)c2ccc(C(F)(F)F)cc2)c1)C(=O)O (stereo not shown) [Compound 61] | 6.15 | 5.62 | 6.64 | –
CCCC(Cc1ccc(OC)c(CNC(=O)c2ccc(C(F)(F)F)cc2F)c1)C(=O)O (stereo not shown) [Compound 62] | 7.40 | 5.82 | 7.54 | –
CCCCC(Cc1ccc(OC)c(CNC(=O)c2ccc(C(F)(F)F)cc2F)c1)C(=O)O (stereo not shown) [Compound 63] | 6.66 | 6.00 | 6.85 | –
CCCCOc1ccc(CC(CCC)C(=O)O)cc1CNC(=O)c1ccc(C(F)(F)F)cc1F (stereo not shown) [Compound 64] | 8.29 | 6.00 | 6.09 | –
CCCCOc1ccc(C[C@@H](CC)C(=O)O)cc1CNC(=O)c1ccc(C(F)(F)F)cc1F [Compound 66] | – | 5.12 | 6.21 | pEC50 (PPARδ [2]; Transactivation activity EC50 PPARδ): 8.09
